pIC50: −log10 of the molar value. Where a name gives a salt, the structure may show the parent alone.
How the values were obtained:
DYRK1A = molecular target: T1, DYRK1A (Homo sapiens, UniProt Q13627); experiment: DYRK1A in vitro kinase assay (ADP-Glo); assay type: biochemical; conditions: ATP 70 μM (Km), substrate 3 μM, enzyme 2 nM or 0.7 nM, 30 min, rt
T1 construct: purchased Carna Bioscence (Carna Biosciences) 04-130

DYRK1B = molecular target: T2, DYRK1B (Homo sapiens, UniProt Q9Y463); experiment: DYRK1B in vitro kinase assay (ADP-Glo); assay type: biochemical; conditions: ADP-Glo assay, ATP 15 μM (Km), substrate 7 μM, enzyme 1 nM or 0.3 nM, 1 h, rt; read-out: DYRK1B IC50
T2 construct: purchased Carna Bioscence (Carna Biosciences) 04-131
T2 sequence (Q9Y463 whole entry): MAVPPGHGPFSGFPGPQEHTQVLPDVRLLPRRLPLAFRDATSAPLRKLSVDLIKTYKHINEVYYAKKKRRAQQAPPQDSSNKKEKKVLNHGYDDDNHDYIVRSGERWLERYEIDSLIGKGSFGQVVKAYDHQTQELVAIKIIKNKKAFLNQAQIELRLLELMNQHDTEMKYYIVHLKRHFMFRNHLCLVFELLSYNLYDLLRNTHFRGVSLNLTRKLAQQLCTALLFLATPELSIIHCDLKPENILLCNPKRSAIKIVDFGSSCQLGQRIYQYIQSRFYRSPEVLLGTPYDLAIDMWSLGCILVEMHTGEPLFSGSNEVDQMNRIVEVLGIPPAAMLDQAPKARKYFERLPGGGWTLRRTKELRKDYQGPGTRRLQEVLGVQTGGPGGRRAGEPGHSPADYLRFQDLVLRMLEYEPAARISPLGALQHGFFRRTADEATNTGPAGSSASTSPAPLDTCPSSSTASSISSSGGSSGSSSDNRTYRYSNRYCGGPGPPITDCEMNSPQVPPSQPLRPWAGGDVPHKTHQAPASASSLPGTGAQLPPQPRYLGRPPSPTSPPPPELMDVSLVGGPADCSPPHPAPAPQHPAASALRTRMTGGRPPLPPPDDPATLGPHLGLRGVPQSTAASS

A pIC50 (DYRK1A) of 7.00 to 8.00 and a pIC50 (DYRK1B) greater than 8.00 were found for `CNC(=O)c1cnc2[nH]cc(-c3ccc4ncc(NCc5cccc(Cl)c5)c(N5CCOCC5)c4c3)c2c1` [Example 56, 3-(3-{[(3-Chlorophenyl)methyl]amino}-4-(morpholin-4-yl)quinolin-6-yl)-N-methyl-1H-pyrrolo[2,3-b]pyridine-5-carboxamide] in this work.
A pIC50 (DYRK1A) greater than 8.00 and a pIC50 (DYRK1B) greater than 8.00 were found for `N[C@@H]1CCCN(c2ccnc3c(F)cc(-c4c[nH]c5ncc(C(=O)NCc6cccnc6)cc45)cc23)C1` [Example 48, 3-{4-[(3R)-3-Aminopiperidin-1-yl]-8-fluoroquinolin-6-yl}-N-(pyridin-3-ylmethyl)-1H-pyrrolo[2,3-b]pyridine-5-carboxamide hydrochloride] in this work.
A pIC50 (DYRK1A) of 7.00 to 8.00 and a pIC50 (DYRK1B) of 7.00 to 8.00 were found for `N[C@H]1CC[C@H](Nc2c([N+](=O)[O-])cnc3ccc(-c4c[nH]c5ncc(C(=O)NCc6cccnc6)cc45)cc23)CC1` [Example 59, 3-{4-[(4-Aminocyclohexyl)amino]-3-nitroquinolin-6-yl}-N-(pyridin-3-ylmethyl)-1H-pyrrolo[2,3-b]pyridine-5-carboxamide hydrochloride] in this work.
A pIC50 (DYRK1A) greater than 8.00 and a pIC50 (DYRK1B) greater than 8.00 were found for `NCCCNC(=O)c1cnc2[nH]cc(-c3cc(F)c4ncccc4c3)c2c1` [Example 35, N-(3-Aminopropyl)-3-(8-fluoroquinolin-6-yl)-1H-pyrrolo[2,3-b]pyridine-5-carboxamide hydrochloride] in this work.
A pIC50 (DYRK1A) of 7.00 to 8.00 and a pIC50 (DYRK1B) greater than 8.00 were found for `CNC(=O)c1cnc2[nH]cc(-c3ccc4ncc(NCc5cccc(Cl)c5)c(N5CCC[C@H](N)C5)c4c3)c2c1` [Example 55, 3-{4-[(3S)-3-Aminopiperidin-1-yl]-3-{[(3-chlorophenyl)methyl]amino}quinolin-6-yl}-N-methyl-1H-pyrrolo[2,3-b]pyridine-5-carboxamide hydrochloride] in this work.
A pIC50 (DYRK1A) greater than 8.00 and a pIC50 (DYRK1B) greater than 8.00 were found for `CNC(=O)c1cnc2[nH]cc(-c3cc(F)c4ncccc4c3)c2c1` [Example 30, 3-(8-Fluoroquinolin-6-yl)-N-methyl-1H-pyrrolo[2,3-b]pyridine-5-carboxamide] in this work.
A pIC50 (DYRK1A) greater than 8.00 and a pIC50 (DYRK1B) greater than 8.00 were found for `CC(=O)N1CCC(Nc2c(N)cnc3ccc(-c4c[nH]c5ncccc45)cc23)CC1` [Example 66, 1-{4-[(3-Amino-6-{1H-pyrrolo[2,3-b]pyridin-3-yl}quinolin-4-yl)amino]piperidin-1-yl}ethan-1-one] in this work.

From US10577365B2, “Derivatives of quinoline as inhibitors of DYRK1A and/or DYRK1B kinases” (Felicitex Therapeutics, Inc., priority 2016, dated 2020)
